Where a name gives a salt, the structure may show the parent alone.
Test system: superior mesenteric artery (contracted by potassium chloride)
Assay: Vessel Smooth Muscle Relaxation Action (V.R.)
Type: cell-based, rabbit
Conditions: Oryctolagus cuniculus; concentration relaxing KCl-contracted strain to 50%; cumulative administration; read-out: V.R. (ED50)
Text: The specimen was suspended by loading a strain in Krebs-Henseleit solution through which an oxygen gas containing 5% carbon dioxide was bubbled. The specimen was contracted by adding potassium chloride to maintain a predetermined strain. Thereafter, a test compound was cumulatively administrated.

SMILES	EC50
CN(C(Cc1cnc[nH]1)CN1CCN(c2ccccc2)CC1)S(=O)(=O)c1cccc2cnccc12 (stereo not shown) [Example 4, N-[1-(Imidazol-4(5)-Yl-Methyl)-2-(4 -Phenylpiperazinyl)Ethyl]-N-Methyl-5-Isoquinoline Sulfonamide]	12 µM
CN(C(Cc1ccc(N)cc1)C(=O)N1CCN(c2ccccc2)CC1)S(=O)(=O)c1cccc2cnccc12 (stereo not shown) [Example 13, 1-[P-Amino-N-(5-Isoquinolinesulfonyl)-N-Methylalanyl]-4-Phenylpiperazine]	1.2 µM
COCCOCOc1ccc(C=CCNCCNS(=O)(=O)c2cccc3cnccc23)cc1 [Example 182, N-{2-[4-(2-Methoxyethoxy)Methoxycinnamylamino]Ethyl}-5-Isoquinolinesulfonamide]	17 µM
COc1cc(C=CCNCCNS(=O)(=O)c2cccc3cnccc23)cc(OC)c1OC [Example 185, N-[2-(3,4,5-Trimethoxycinnamylamino)ethyl]-5-Isoquinolinesulfonamide]	0.21 µM
O=S(=O)(NCCN(CC#Cc1ccc(Cl)cc1)CC#Cc1ccc(Cl)cc1)c1cccc2cnccc12 [Example 189-II, N-{2-[Bis-(3-((4-Chlorophenyl))-2-Propynyl)Amino]Ethyl}-5-Isoquinolinesulfonamide]	0.2 µM
CN(CC=Cc1ccc(Cl)cc1)CCNS(=O)(=O)c1cccc2cnccc12 [Example 190, N-[2-(4-Chloro-N-Methylcinnamylamino)ethyl]-5-Isoquinolinesulfonamide]	0.19 µM

More lines, now with the values ahead:

EC50	SMILES
5.4 µM	CC(C=Cc1ccccc1)NCCCNS(=O)(=O)c1cccc2cnccc12 (stereo not drawn) [Example 171, N-[3-(α-Methylcinnamylamino)Propyl]-5-Isoquinolinesulfonamide]
11 µM	CN(C)c1ccc(C=CCNCCNS(=O)(=O)c2cccc3cnccc23)cc1 [Example 174]
2.8 µM	O=S(=O)(NCCNCC=Cc1ccc(O)cc1)c1cccc2cnccc12 [Example 183, N-[2-(4-Hydroxycinnamylamino)ethyl]-5-Isoquinolinesulfonamide]
4 µM	O=S(=O)(NCCCNCC=Cc1ccccc1)c1cccc2cnccc12 [Example 188, N-(3-Cinnamylaminopropyl)-5-Isoquinolinesulfonamide]
3.2 µM	O=S(=O)(NCCNCC=Cc1ccccc1)c1cccc2cnccc12 [Example 201, N-(2-Cinnamylaminoethyl)-5-Isoquinolinesulfonamide.1/2 Fumarate]
1.3 µM	CC(C=Cc1ccccc1)NCCNS(=O)(=O)c1cccc2cnccc12 (stereo not drawn) [Example 202, N-[2-(α-Methylcinnamylamino)Ethyl]-5-Isoquinolinesulfonamide 1/2 Fumarate]

Molecular target: Calmodulin-Dependent Phosphodiesterase (Ca^2+ PDE)
Assay: Calmodulin-Dependent Phosphodiesterase Inhibition (Ca^2+ PDE)
Type: biochemical, rat
Conditions: [^3 H]-cGMP, 30° C.
Protocol: Phosphodiesterase (Ca^2+ PDE)Ca^2+ PDE was partially purified from the brain of rat by DEAE-Sepharose column chromatography.
Calmodulin was purified from the calf brain using a calmodulin inhibitor W-7 affinity column.
A reaction mixture contained 20 μl of 500 mM Tris-HCl (pH 8.0), 20 μl of 50 mM MgCl2, 20 μl of 2 mM CaCl2 (or 10 mM EGTA), 20 μl of 1 mg/ml bovine serum albumin, PDE, […] of calmodulin, test sample and distilled water to make total volume 200 μl. To the mixture was added 20 μl of 4 μM [^3 H]-cGMP (2.5 μCi/ml), the mixture was incubated at 30° C. for 15 minutes, and then heated in boiling water for 3 to 5 minutes to terminate the reaction, and cooled in ice-water bath. 20 μg of 5'-nucleotidase (Snake venum) was added to the mixture, and the mixture was again incubated at 30° C. for 10 minutes. After addition of about 2 ml of water, the sample was applied to a cation exchange resin column (Biorad AG.AG50W-X4 to adsorbe the [^3 H]-guanosine and additionally about 2 ml of washing water for the sample was added to the column. The column was washed with about 20 ml of water, and the adsorbed [^3 H]-guanosine was eluted with 3 ml of 3N NH4 OH, and the elute was directly received by a vial. After an addition of 10 ml of an emulsified scintillation solution (ACS-II, AMERSHAM) the radio activity was measured by a scintillation counter LS7500 (Beckmann). The enzyme activity in the presence of calmodulin was taken as […], and a concentration of a test compound in μM which provides a 50% inhibition was expressed as IC50.

SMILES	IC50
CN(C(Cc1cnc[nH]1)CN1CCN(c2ccccc2)CC1)S(=O)(=O)c1cccc2cnccc12 (stereo not shown) [Example 4, N-[1-(Imidazol-4(5)-Yl-Methyl)-2-(4 -Phenylpiperazinyl)Ethyl]-N-Methyl-5-Isoquinoline Sulfonamide]	53 µM
O=C(C(Cc1ccc([N+](=O)[O-])cc1)NS(=O)(=O)c1cccc2cnccc12)N1CCN(c2ccccc2)CC1 (stereo not shown) [Example 11, 1-[N-(5-Isoquinolinesulfonyl)-P-Nitrophenylalanyl]-4-Phenylpiperazine]	59 µM
CN(C(Cc1ccc(N)cc1)C(=O)N1CCN(c2ccccc2)CC1)S(=O)(=O)c1cccc2cnccc12 (stereo not shown) [Example 13, 1-[P-Amino-N-(5-Isoquinolinesulfonyl)-N-Methylalanyl]-4-Phenylpiperazine]	15 µM
Cc1ccc(S(=O)(=O)Nc2ccc(CC(NS(=O)(=O)c3cccc4cnccc34)C(=O)N3CCN(c4ccccc4)CC3)cc2)cc1 (stereo not shown) [Example 15, 1-[N-(5-Isoquinolinesulfonyl)-P-(P-Toluenesulfonylamino)Phenylalanyl]-4-Phenylpiperazine]	43 µM
Cc1ccc(COC2CCN(CC(Cc3ccc(O)cc3)NS(=O)(=O)c3cccc4cnccc34)CC2)cc1 (stereo not shown) [Example 85, N-{1-(P-Hydroxybenzyl)-2-{4-(P-Methylbenzyloxy)Piperidino]Ethyl}-Isoquinolinesulfonamide]	75 µM
CN(C(Cc1ccc(OS(=O)(=O)c2cccc3cnccc23)cc1)CN1CCC(c2ccccc2)CC1)S(=O)(=O)c1cccc2cnccc12 (stereo not shown) [Example 92, N-{1-[p-(5-isoquinolinesulfonyloxy)benzyl]-2-(4-phenylpiperidino)ethyl}-N-methyl-5-isoquinolinesulfonamide]	63 µM
O=S(=O)(NCCN(CC=Cc1ccc(Cl)cc1)Cc1ccc(O)cc1)c1cccc2cnccc12 [Example 194, N-{2-[4-Chloro-N-(4-Hydroxybenzyl)Cinnamylamino]ethyl}-5-Isoquinolinesulfonamide]	80 µM
